Several values for one entry are separate records, joined by “and”; a condition that tells them apart may be missing. Identical values can stand only once. Toxic doses and inconclusive results are not listed. The calls were made as follows: active = survival T/C of 150% or more; inactive = T/C below 125% in these data.
Tested on: P388 leukemia ip, CD2F1 mice, survival T/C
Assay: NCI In Vivo Anticancer Drug Screen. Data for tumor model P388 Leukemia (intraperitoneal) in CD2F1 (CDF1) mice
Details: endpoint: median survival time, higher = longer survival
In short: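 Mice carrying the transplanted tumor received test compound or vehicle. Survival was recorded in each group, and the value is the treated-group measurement divided by that of the vehicle-treated control group.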

[1] = dose: 100.0 mg/kg/injection, schedule: Q04DX003 (ip), vehicle: saline with Tween-80
[2] = dose: 200.0 mg/kg/injection, schedule: Q04DX003 (ip), vehicle: saline with Tween-80
[3] = dose: 50.0 mg/kg/injection, schedule: Q01DX009 (ip), vehicle: Klucel (hydroxypropylcellulose) (HPC)
[4] = dose: 100.0 mg/kg/injection, schedule: Q01DX009 (ip), vehicle: Klucel (hydroxypropylcellulose) (HPC)
[5] = dose: 200.0 mg/kg/injection, schedule: Q01DX009 (ip), vehicle: Klucel (hydroxypropylcellulose) (HPC)
[6] = dose: 50.0 mg/kg/injection, schedule: Q01DX009 (ip), vehicle: saline
[7] = dose: 240.0 mg/kg/injection, schedule: Q01DX005 (ip), vehicle: Klucel (hydroxypropylcellulose) (HPC)
[8] = dose: 50.0 mg/kg/injection, schedule: Q01DX005 (ip), vehicle: Klucel (hydroxypropylcellulose) (HPC)
[9] = dose: 100.0 mg/kg/injection, schedule: Q01DX005 (ip), vehicle: Klucel (hydroxypropylcellulose) (HPC)
[10] = dose: 200.0 mg/kg/injection, schedule: Q01DX005 (ip), vehicle: Klucel (hydroxypropylcellulose) (HPC)
[11] = dose: 100.0 mg/kg/injection, schedule: Q01DX001 (ip), vehicle: saline with Tween-80
[12] = dose: 200.0 mg/kg/injection, schedule: Q01DX001 (ip), vehicle: saline with Tween-80
[13] = dose: 50.0 mg/kg/injection, schedule: Q01DX005 (ip), vehicle: saline with Tween-80
[14] = dose: 100.0 mg/kg/injection, schedule: Q01DX005 (ip), vehicle: saline with Tween-80
[15] = dose: 25.0 mg/kg/injection, schedule: Q01DX005 (ip), vehicle: Klucel (hydroxypropylcellulose) (HPC)

Measured: T/C

CCCCCCCCCCCCCCCCCCOP(=O)(CC(=O)NCc1cc(C(C)(C)C)c(O)c(C(C)(C)C)c1)OCCCCCCCCCCCCCCCCCC
inactive: dose: 12.5 mg/kg/injection, schedule: Q04DX003 (ip), vehicle: saline with Tween-80 96 % of control | dose: 25.0 mg/kg/injection, schedule: Q04DX003 (ip), vehicle: saline with Tween-80 101 % of control | dose: 50.0 mg/kg/injection, schedule: Q04DX003 (ip), vehicle: saline with Tween-80 92 % of control | [1] 86 % of control | [2] 100 % of control

COc1cc2ccc(/C(C)=N/OC(C)=O)cc2cc1OC
inactive: dose: 100.0 mg/kg/injection, schedule: Q01DX009 (ip), vehicle: saline with Tween-80 95 % of control | dose: 200.0 mg/kg/injection, schedule: Q01DX009 (ip), vehicle: saline with Tween-80 90 % of control | dose: 400.0 mg/kg/injection, schedule: Q01DX009 (ip), vehicle: saline with Tween-80 90 % of control

CCCCCCCCCCCCCCCCS(=O)(=O)N/N=C(/c1ccc(Cl)cc1)N1CCCCC1
inactive: [3] 100 % of control | [4] 102 % of control | [5] 92 % of control

CN1ON(c2ccc(Cl)c(Cl)c2)OC1=O
inactive: dose: 12.5 mg/kg/injection, schedule: Q01DX009 (ip), vehicle: saline 103 % of control | dose: 25.0 mg/kg/injection, schedule: Q01DX009 (ip), vehicle: saline 105 % of control | [6] 104 % of control and 109 % of control

c1onc2c1C1CC3CC(C1)CC2C3
inactive: [3] 96 % of control | [4] 89 % of control | [5] 92 % of control

O=C1NCN(c2ccccc2)C12CCNCC2
inactive: dose: 25.0 mg/kg/injection, schedule: Q04DX003 (ip), vehicle: saline sonified 109 % of control | dose: 50.0 mg/kg/injection, schedule: Q04DX003 (ip), vehicle: saline sonified 109 % of control | dose: 100.0 mg/kg/injection, schedule: Q04DX003 (ip), vehicle: saline sonified 95 % of control

CC1Nc2ccccc2NC1C (centres undefined)
inactive: dose: 6.25 mg/kg/injection, schedule: Q01DX009 (ip), vehicle: saline + Tween-80 + alcohol 98 % of control | dose: 12.5 mg/kg/injection, schedule: Q01DX009 (ip), vehicle: saline + Tween-80 + alcohol 96 % of control | dose: 25.0 mg/kg/injection, schedule: Q01DX009 (ip), vehicle: saline + Tween-80 + alcohol 99 % of control and 95 % of control | dose: 50.0 mg/kg/injection, schedule: Q01DX009 (ip), vehicle: saline + Tween-80 + alcohol 91 % of control | dose: 100.0 mg/kg/injection, schedule: Q01DX009 (ip), vehicle: saline + Tween-80 + alcohol 100 % of control

NC(=S)Nc1ccc(C(=O)O)cc1
inactive: [1] 100 % of control | [2] 95 % of control | dose: 400.0 mg/kg/injection, schedule: Q04DX003 (ip), vehicle: saline with Tween-80 109 % of control

CC(=O)OCC12C(=O)CC(C)C3(CC(c4ccoc4)OC3=O)C1(C)CCCC21CO1 (centres undefined) (tested in a mixture with another compound)
inactive: dose: 12.0 mg/kg/injection, schedule: Q01DX005 (ip), vehicle: Klucel (hydroxypropylcellulose) (HPC) 94 % of control | dose: 24.0 mg/kg/injection, schedule: Q01DX005 (ip), vehicle: Klucel (hydroxypropylcellulose) (HPC) 92 % of control | dose: 48.0 mg/kg/injection, schedule: Q01DX005 (ip), vehicle: Klucel (hydroxypropylcellulose) (HPC) 91 % of control | dose: 96.0 mg/kg/injection, schedule: Q01DX005 (ip), vehicle: Klucel (hydroxypropylcellulose) (HPC) 100 % of control

CCOCc1ccc(C(=O)NCCCc2c(-c3ccccc3)nc(N)[nH]c2=O)cc1
inactive: dose: 3.75 mg/kg/injection, schedule: Q01DX005 (ip), vehicle: Klucel (hydroxypropylcellulose) (HPC) 100 % of control and 103 % of control and 94 % of control | dose: 7.5 mg/kg/injection, schedule: Q01DX005 (ip), vehicle: Klucel (hydroxypropylcellulose) (HPC) 93 % of control and 97 % of control | dose: 15.0 mg/kg/injection, schedule: Q01DX005 (ip), vehicle: Klucel (hydroxypropylcellulose) (HPC) 89 % of control and 92 % of control and 97 % of control | [7] 86 % of control

COc1ccc2c3c1OC1CC(N4CCCC4)=C(c4c([N+](=O)[O-])cc([N+](=O)[O-])cc4[N+](=O)[O-])C4(O)C(C2)N(C)CCC314 (centres undefined)
inactive: dose: 60.0 mg/kg/injection, schedule: Q01DX005 (ip), vehicle: Klucel (hydroxypropylcellulose) (HPC) 94 % of control | dose: 120.0 mg/kg/injection, schedule: Q01DX005 (ip), vehicle: Klucel (hydroxypropylcellulose) (HPC) 94 % of control | [7] 90 % of control

O=C1NC(=O)C(C(=O)Nc2ccc(Cl)cc2)c2ccccc21 (centres undefined)
inactive: [8] 101 % of control | [9] 95 % of control | [10] 99 % of control

c1ccc2c(c1)N=Nc1ccccc1OCCOCCOCCO2
inactive: dose: 25.0 mg/kg/injection, schedule: Q01DX001 (ip), vehicle: saline with Tween-80 103 % of control | dose: 50.0 mg/kg/injection, schedule: Q01DX001 (ip), vehicle: saline with Tween-80 102 % of control | [11] 92 % of control

CC1(C)CC(OP(=[Se])(OC2CC(C)(C)N(O)C(C)(C)C2)OC2CC(C)(C)N(O)C(C)(C)C2)CC(C)(C)N1O
inactive: dose: 12.5 mg/kg/injection, schedule: Q01DX001 (ip), vehicle: Klucel (hydroxypropylcellulose) (HPC) 97 % of control | dose: 25.0 mg/kg/injection, schedule: Q01DX001 (ip), vehicle: Klucel (hydroxypropylcellulose) (HPC) 102 % of control | dose: 50.0 mg/kg/injection, schedule: Q01DX001 (ip), vehicle: Klucel (hydroxypropylcellulose) (HPC) 104 % of control

COc1cc(OC)c2c(=O)c3ccc([N+](=O)[O-])cc3n(C)c2c1
inactive: [11] 100 % of control | [12] 100 % of control

C=C1CC23CCC4C(C)(C(=O)O)CCCC4(C)C2CCC1C3 (centres undefined)
inactive: [13] 116 % of control | [14] 116 % of control | dose: 200.0 mg/kg/injection, schedule: Q01DX005 (ip), vehicle: saline with Tween-80 117 % of control | dose: 400.0 mg/kg/injection, schedule: Q01DX005 (ip), vehicle: saline with Tween-80 107 % of control

C=C1C(=O)O[C@@H]2[C@H]3C(C)=CC[C@@H](OC(=O)/C(C)=C/C)[C@]3(C)[C@H](O)C[C@@H]12
inactive: dose: 7.0 mg/kg/injection, schedule: Q01DX005 (ip), vehicle: Klucel (hydroxypropylcellulose) (HPC) 100 % of control | dose: 14.0 mg/kg/injection, schedule: Q01DX005 (ip), vehicle: Klucel (hydroxypropylcellulose) (HPC) 100 % of control | dose: 28.0 mg/kg/injection, schedule: Q01DX005 (ip), vehicle: Klucel (hydroxypropylcellulose) (HPC) 106 % of control | dose: 56.0 mg/kg/injection, schedule: Q01DX005 (ip), vehicle: Klucel (hydroxypropylcellulose) (HPC) 105 % of control

CCOC(=O)c1cnn(CC(OCC)OCC)c1N
inactive: [11] 102 % of control | [12] 108 % of control | dose: 400.0 mg/kg/injection, schedule: Q01DX001 (ip), vehicle: saline with Tween-80 109 % of control

Cc1cc(C=C2C(=O)NC(=O)NC2=O)cc(C)c1O
inactive: dose: 12.5 mg/kg/injection, schedule: Q01DX005 (ip), vehicle: saline with Tween-80 108 % of control | dose: 25.0 mg/kg/injection, schedule: Q01DX005 (ip), vehicle: saline with Tween-80 103 % of control | [13] 105 % of control and 119 % of control | [14] 117 % of control

O=C(O)CCC(=O)NCCOC(=O)CCC(=O)O
inactive: [6] 99 % of control | dose: 100.0 mg/kg/injection, schedule: Q01DX009 (ip), vehicle: saline 104 % of control | dose: 200.0 mg/kg/injection, schedule: Q01DX009 (ip), vehicle: saline 106 % of control

O=C(NC(=O)c1cccc2ccccc12)NC(=S)c1ccccc1
inactive: dose: 100.0 mg/kg/injection, schedule: Q01DX001 (ip), vehicle: saline 92 % of control | dose: 200.0 mg/kg/injection, schedule: Q01DX001 (ip), vehicle: saline 88 % of control | dose: 400.0 mg/kg/injection, schedule: Q01DX001 (ip), vehicle: saline 86 % of control

CCCCN(CCCC)C(=O)C(C)O (centres undefined)
inactive: [15] 108 % of control | [8] 105 % of control | [9] 110 % of control | [10] 112 % of control

CN(C)CCNc1cccc2oc3ccc(O)cc3c(=O)c12
inactive: [15] 101 % of control | [8] 107 % of control | [9] 110 % of control | [10] 114 % of control
